These results are taken from paper PMC7016953 (Cells, 2020).

One test has as its system parental HEK293 cells. The test is described as follows: [Ca2+]i response in un-transfected parental HEK293 cells. Format: cell-based, human. Here is the method: All fluorometric Ca^2+ assays were done in (4-(2-hydroxyethyl)-1-piperazineethanesulfonic acid) (HEPES)-buffered saline (HBS), containing 132 mM NaCl, 6 mM KCl, 1 mM MgCl2, 1 mM CaCl2, 5.5 mM D-glucose, 10 mM HEPES, and 0.035% bovine serum albumin (BSA) adjusted to pH 7.4 with NaOH. For measurements in Ca^2+-free bath solutions, a modified HBS without CaCl2 was supplemented with 200 µM ethylene glycol-bis(β-aminoethyl ether)-N,N,N′,N′-tetraacetic acid (EGTA).
The primary compound screen and the generation of concentration response curves in HEK293 cells or in PC12 cells were performed by using a custom-made fluorescence plate imager built into a robotic liquid handling station equipped with a 96-tip multichannel head (Freedom Evo 150, Tecan, Männedorf, Switzerland) as described previously. To this end, trypsinized cell suspensions were loaded with 4 µM fluo-4/AM (Invitrogen, Thermo Fisher Scientific, Waltham, MA, U.S.A.) in cell culture medium for 30 min at 37 °C. After brief centrifugation, cells were resuspended in HBS and dispensed into black pigmented, clear-bottom 384-well plates (Greiner µClear, Frickenhausen, Germany). Plates were mounted on the imager, and fluorescence signals were recorded with a cooled Zyla 5.5 camera (Andor, Belfast, UK) through a 515 nm long pass filter. The image acquisition was controlled by the µManager software (http://micro-manager.org), and excitation with a LED array (470 nm) was synchronized by the camera trigger output. After baseline recording for about 60 s, the compound libraries or serial dilutions of activators or inhibitors were added to the cells by the liquid handling device. When inhibitory potencies were evaluated, a second pipetting step with the respective reference agonist was performed. Fluorescence intensities were calculated from image stacks for each well with ImageJ (National Institutes of Health, Bethesda, MD, U.S.A.), corrected for background signals, and normalized to the initial intensities (F/F0). […]

The next test has as its target T1, TRPC3 (Homo sapiens, UniProt Q13507).
T1 construct: expressed in transfected cells
T1 sequence (Q13507 1-848 isoform Q13507-3): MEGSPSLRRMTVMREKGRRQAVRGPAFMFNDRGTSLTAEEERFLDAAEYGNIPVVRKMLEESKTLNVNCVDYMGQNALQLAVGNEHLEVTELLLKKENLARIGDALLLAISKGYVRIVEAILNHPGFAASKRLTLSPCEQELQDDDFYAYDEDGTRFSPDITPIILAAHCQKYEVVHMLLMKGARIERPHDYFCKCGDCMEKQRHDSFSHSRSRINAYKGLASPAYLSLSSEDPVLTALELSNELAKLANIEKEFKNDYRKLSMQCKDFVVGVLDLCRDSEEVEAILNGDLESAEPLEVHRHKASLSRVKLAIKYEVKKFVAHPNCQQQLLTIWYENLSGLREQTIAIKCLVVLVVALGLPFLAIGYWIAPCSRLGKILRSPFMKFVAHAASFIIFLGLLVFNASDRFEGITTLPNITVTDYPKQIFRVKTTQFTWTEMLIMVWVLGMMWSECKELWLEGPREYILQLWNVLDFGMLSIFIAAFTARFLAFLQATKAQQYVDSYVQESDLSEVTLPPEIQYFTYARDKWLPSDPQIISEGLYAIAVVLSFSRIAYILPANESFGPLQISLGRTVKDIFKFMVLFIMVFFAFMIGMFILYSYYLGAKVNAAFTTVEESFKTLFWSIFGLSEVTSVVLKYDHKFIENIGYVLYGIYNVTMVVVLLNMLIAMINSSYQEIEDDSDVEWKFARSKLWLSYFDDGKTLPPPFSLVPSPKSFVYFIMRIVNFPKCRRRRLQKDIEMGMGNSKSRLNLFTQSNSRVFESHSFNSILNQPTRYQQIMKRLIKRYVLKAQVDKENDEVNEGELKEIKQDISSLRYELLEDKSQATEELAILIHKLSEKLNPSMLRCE
Kind of test: Fluo-4 Ca2+ influx assay in HEK TRPC3-YFP cell suspensions. Format: cell-based.

Another test has as its system T2, TRPC7.
T2 construct: expressed in transfected cells
Kind of test: Microfluorometric single-cell [Ca2+]i analysis, fura-2-loaded HEK cells stably expressing TRPC7. The class given is cell-based, human. The note with it: 50 µM. Here is the method:
The microfluorometric single-cell [Ca^2+]i analysis was performed on an inverted epifluorescence microscope (Carl Zeiss, Jena, Germany) and calibrated as described. Cells were grown on 25 mm coverslips and loaded with 4 µM fura-2/AM (AAT Bioquest, Sunnyvale, CA, U.S.A.) in HBS containing 0.2% BSA for 30 min at 37 °C. […] Experiments were performed either in standard bath solution, containing 1 mM Ca^2+ (black lines and bars), or in a nominally Ca^2+-free HBS buffer, supplemented with 200 µM EGTA (grey lines and bars). Time courses of averaged responses (left), and statistical analysis of 6–11 independent imaging experiments with means and S.D. (right) are shown. Significant differences (p < 0.05, Student´s t-test with paired data: #, with unpaired data: *) are marked for the indicated comparisons; n.s.: difference is statistically not significant.

SMILES strings stand for the structures.

For the molecule `C[C@@H]1CC[C@H]2[C@@H](C)C(=O)O[C@@H]3O[C@@]4(C)CC[C@@H]1[C@]32OO4` [artemisinin], the “response of un-transfected parental HEK293 cells” value in the test with parental HEK293 cells (concentrations up to 50 µM) is on record as “no response”. In the test on parental HEK293 cells (single-cell analysis, followed by carbachol), the “[Ca2+]i signals in parental HEK293 cells” value was “does not induce [Ca^2+]i signals”. The “fluorescence signal of the Ca2+ indicator in primary screen” value at TRPC3 (20 µM, acute addition) was “immediate and transient increase in the fluorescence signal”. The “EC50 of artemisinin under simultaneous application of OAG” value at TRPC3 (10–100 µM OAG co-applied) is “not affected”. In addition, on TRPC3 (fluo-4, HEK TRPC3-YFP cell suspensions, read-out: potency to activate Ca2+ entry through TRPC3), the EC50 amounted to 32.8 µM. On TRPC3 (preincubation with 500 nM, 1 µM, or 5 µM OAG), the “Ca2+ influx signals after preincubation with OAG” value is given as “did not induce stronger Ca^2+ influx signals”. The “[Ca2+]i signal in TRPC7-expressing cells in Ca2+-free bath” value in the test on TRPC7 (nominally Ca2+-free HBS with 200 µM EGTA) is on record as “abolished”. Further, in the test on TRPC7 (standard bath 1 mM Ca2+), the “[Ca2+]i response in TRPC7-overexpressing cells” value is “only a weak [Ca^2+]i signal”.
